pIC50: −log10 of the molar value.
Assays:
Gabrb3^+/− mice = test: Barnes maze, Gabrb3+/- mice; format: in vivo, mouse; conditions: 0.3 mg/kg IP for 2 weeks, 6-8 months old
Description: (§1) Flow chart in FIG. 13A depicts an overview of the Barnes maze. In training trials which are considered as learning test, time spent to locate the target hole was recorded and quantified for each day in each mouse genotype. In probe trials which are considered as memory test, an hour after the last training trial, each mouse was allotted a 300 sec session to find the target hole. […]. The total time spent at each of the 12 holes was assessed.

[1] = MDCKII bidirectional assay; format: in vitro ADME; conditions: dog
From the text: (§2) MDCKII bidirectional assay was run in collaboration with Dr. Shaun Stauffer in Vanderbilt Institute of Chemical Biology (VICB) synthesis core who is a consultant on this project.

MDCKII cells = test: MDCKII bidirectional assay; format: in vitro ADME; conditions: MDCK II bidirectional assay
From the text: as §2

[2] = Caco-2 intrinsic permeability; conditions: human
Scn1a^+/− mice = test: Early intermittent dosing, survival of Scn1a+/- mice; format: in vivo, mouse; conditions: 0.3 mg/kg intermittent from postnatal day 7; untreated ~60% mortality by week 7
From the text: (FIG. 5B, C). Gabrg2^+/Q390X mice in C57/BL/6J background had ˜25% of mortality (B) while Scn1a^+/− mice in C57/BL/6J background had ˜60% of mortality by week 7 (C). […] The Gabrg2^+/Q390X mice were in C57/BL/6J background while Scn1a^+/− sires were from mixed S129/C57BL/6J and the dams were congenic C57/BL/6J. For each mouse model, heterozygous pups of both male and female from 6-8 litters were included.

AppSWE/PsenIdE9 mice = conditions: mouse, in vivo; cited from earlier work
CYP 2C9 = CYP 2C9 (Homo sapiens, UniProt P11712); test: biochemical
Chain of CYP 2C9 (P11712 whole entry): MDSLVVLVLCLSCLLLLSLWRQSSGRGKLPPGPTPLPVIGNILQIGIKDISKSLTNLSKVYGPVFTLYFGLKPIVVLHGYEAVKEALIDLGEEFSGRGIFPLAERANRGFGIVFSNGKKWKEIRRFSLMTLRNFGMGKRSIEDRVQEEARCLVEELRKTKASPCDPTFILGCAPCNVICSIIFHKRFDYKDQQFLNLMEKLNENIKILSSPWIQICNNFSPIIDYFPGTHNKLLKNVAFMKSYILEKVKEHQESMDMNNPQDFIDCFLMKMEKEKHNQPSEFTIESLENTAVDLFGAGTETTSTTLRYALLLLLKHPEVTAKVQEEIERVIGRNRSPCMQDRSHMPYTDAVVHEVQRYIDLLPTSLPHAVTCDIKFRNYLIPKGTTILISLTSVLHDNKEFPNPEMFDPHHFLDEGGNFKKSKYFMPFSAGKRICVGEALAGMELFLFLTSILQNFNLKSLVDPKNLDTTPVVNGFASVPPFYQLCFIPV

[3] = tested on: epilepsy mouse models, AppSWE/PsenIdE9 mice; test: PTZ seizure severity (Racine scale) in different epilepsy mouse models and AppSWE/PsenIdE9 mice; format: in vivo; conditions: 0.3 mg/kg IP daily×14 days; PTZ 50 mg/kg IP; n=5 per group
From the text: In this regard, an asterisk stands for the mutant protein aggregation in the neurons in related mouse models.

[4] = Hepatic microsomal clearance (mouse); format: in vitro ADME; conditions: liver microsomes, pH 7.4
Description: Intrinsic clearance and predicted hepatic clearance: Intrinsic clearance will be determined using the substrate depletion approach. Reactions (0.3 mL) will be conducted using a Tecan EVO (San Jose, Calif.) in 96-well polypropylene cluster tubes with a temperature controlled water-jacketed aluminum plate holder held at 37° C. Incubations will be performed in triplicate in 0.1 M potassium phosphate buffer (pH 7.4), 3 mM MgCl2, 1 μM tizanidine, and 1 mg/mL liver microsomes. After incubation mixtures are equilibrated for 3 min at 37° C., reactions will be initiated with 10 mM NADPH to give a final NADPH concentration of 1 mM. At 0, 3, 7, 15, 25, and 45 min, a 25 μL aliquot will be removed from the reactions and delivered into 125 μL of acetonitrile containing an internal standard. The quench plates will then be centrifuged at 3,000×g for 10 min and an aliquot of the supernatants added to an injection plate with an equal volume of water. Samples will then be analyzed using LC/MS/MS.
Intrinsic clearance is calculated as: […]
Species-specific parameters for mouse and human liver protein content will be used. The predicted hepatic clearance will then be estimated using species-specific liver blood flow values: […]

[5] = Brain and plasma concentration of celastrol in mice (IP, oral gavage)
From the text: For chronic dosing, samples were collected 2 hrs after drug administration.
Blood samples for drug bioanalysis will be collected in EDTA plasma tubes, immediately centrifuged, and the plasma fraction frozen at −80 C until analysis. Whole brains will also be frozen until analysis. […] Study samples, standards, and quality control samples will be precipitated with acetonitrile containing an internal standard, centrifuging the samples, and then injecting the supernatant onto a reverse phase LC/MS/MS system. Assay performance will be checked with retention time, peak shape, and quality control samples. The free drug concentration from animal studies will be calculated by multiplying the in vitro plasma free fraction (funbound) by the determined plasma concentrations. […] GABAA receptor subunits, AKT and neuronal survival signaling molecules, heat shock protein and synaptic scaffold proteins will be the focus.

CYP 2D6 = CYP 2D6 (Homo sapiens, UniProt P10635); test: biochemical
Chain of CYP 2D6 (P10635 whole entry): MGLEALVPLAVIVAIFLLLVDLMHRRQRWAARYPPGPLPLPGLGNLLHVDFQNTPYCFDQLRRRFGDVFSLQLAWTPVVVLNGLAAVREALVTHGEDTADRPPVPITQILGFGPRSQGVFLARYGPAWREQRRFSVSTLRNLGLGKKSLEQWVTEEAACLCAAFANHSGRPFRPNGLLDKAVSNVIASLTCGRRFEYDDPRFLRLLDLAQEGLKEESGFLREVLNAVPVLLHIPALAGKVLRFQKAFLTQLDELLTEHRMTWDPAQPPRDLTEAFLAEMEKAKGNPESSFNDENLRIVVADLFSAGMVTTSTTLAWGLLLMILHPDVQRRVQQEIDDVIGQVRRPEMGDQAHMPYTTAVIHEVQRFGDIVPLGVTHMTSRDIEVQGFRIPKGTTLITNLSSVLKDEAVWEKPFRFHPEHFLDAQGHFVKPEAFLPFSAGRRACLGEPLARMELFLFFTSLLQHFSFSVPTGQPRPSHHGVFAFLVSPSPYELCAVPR

[6] = tested on: synaptic scaffold protein gephyrin; test: Gephyrin staining in brain sections of Gabrg2+/Q390X mice; format: in vivo, mouse; conditions: 0.3 mg/kg for 14 days
From the text: Synaptosomes from mouse forebrains were isolated by subcellular fractionation^7. The samples were then fractionated by SDS-PAGE and immunoblotted by rabbit polyclonal anti-γ2 subunit antibody and synaptic scaffold proteins including gephyrin, collybistin, synaptogamin 1 and neuroligin II. The γ2 subunit protein and synaptic scaffold proteins were reduced in the Gabrg2^+/Q390X (het) mice. (FIG. 18A). […] The sections were then stained with rabbit anti-γ2 subunit (green) and mouse monoclonal anti-gephyrin (red) antibodies. The nuclei were stained with TO-PRO-3. (FIG. 18B). The raw fluorescence values of gephyrin was measured by ImageJ. […] (FIG. 18C).

Gabrg2^+/Q390X mice = test: Barnes maze, Gabrg2+/Q390X mice; format: in vivo, mouse; conditions: 0.3 mg/kg IP for 2 weeks, 2-4 months old
Description: as §1

[7] = tested on: mutant GABAA α1β2γ2(R82Q) receptors; test: Expression of mutant α1β2γ2(R82Q) receptor subunits in HEK 293T cells (SDS-PAGE immunoblot); format: cell-based
Description: HEK 293T cells were transfected with α1, […] and the mutant γ2(R82Q) subunits at 1:1:1 cDNA ratio for 48 hrs. […] (FIG. 20A). Total cell lysates were analyzed by SDS-PAGE and the membrane was immunoblotted against al or γ2 subunits. (FIG. 20A). Protein IDVs of al or γ2 subunits were normalized to the cells without treatment (0) (FIG. 20B).

heat shock protein Hsp70 = test: Hsp70 expression by high throughput flow cytometry in HEK 293T cells; format: cell-based; conditions: 4 hrs before harvest
From the text: HEK 293T cells were transfected with α1, β2 and wild-type γ2S (wt) or the mutant γ2S(Q390X) (mut) subunits for 48 hrs (FIG. 16). […] The cells were permeabilized and stained with monoclonal hsp70 (1:200) which was then conjugated with Alexa 647.

CYP 1A2 = CYP 1A2 (Homo sapiens, UniProt P05177); test: biochemical
Chain of CYP 1A2 (P05177 whole entry): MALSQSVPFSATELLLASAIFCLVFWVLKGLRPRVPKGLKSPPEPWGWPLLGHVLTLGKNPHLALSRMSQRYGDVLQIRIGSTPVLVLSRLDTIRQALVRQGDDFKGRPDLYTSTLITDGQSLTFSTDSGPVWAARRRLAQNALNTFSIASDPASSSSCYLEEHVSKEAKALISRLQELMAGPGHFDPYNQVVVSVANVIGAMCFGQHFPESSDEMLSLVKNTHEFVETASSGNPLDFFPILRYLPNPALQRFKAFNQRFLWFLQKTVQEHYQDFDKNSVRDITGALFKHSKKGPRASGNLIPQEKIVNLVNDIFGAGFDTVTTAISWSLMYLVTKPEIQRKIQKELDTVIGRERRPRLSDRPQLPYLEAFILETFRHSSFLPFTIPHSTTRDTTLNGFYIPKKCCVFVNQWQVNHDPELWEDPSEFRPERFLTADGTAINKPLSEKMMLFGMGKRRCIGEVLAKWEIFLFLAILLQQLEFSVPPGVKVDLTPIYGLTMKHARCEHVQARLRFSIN

Structure (SMILES): CC1=C(O)C(=O)C=C2C1=CC=C1[C@@]2(C)CC[C@@]2(C)[C@@H]3C[C@](C)(C(=O)O)CC[C@]3(C)CC[C@]12C [Celastrol, 3-Hydroxy-9β,13α-dimethyl-2-oxo-24,25,26-trinoroleana-1(10),3,5,7-tetraen-29-oic acid]
- time spent at target hole in probe trial (Gabrb3^+/− mice): spent more time in the target hole area
- Papp ([1]; MDCK, MDCKII cells, read-out: apparent membrane permeability Papp): ≥ 1 ×10⁻⁶ cm/s
- Papp A→B ([1]; MDCK II bidirectional assay): 56.5 ×10⁻⁶ cm/s
- efflux (MDCKII cells): no significant efflux
- Papp at 2 h, 2 microM [2]: ≥ 1 ×10⁻⁶ cm/s
- survival (Scn1a^+/− mice): completely rescued the survival
- memory (AppSWE/PsenIdE9 mice): improve memory
- pIC50 (CYP 2C9): 5.31
- seizure severity [3]: reduced seizure severity
- CLint scaled [4]: 160 mL/min/kg
- celastrol concentration in the mouse brain ([5]; level with good efficacy): 120-150 nm
- Kp at 24 h ([5]; mouse, brain, intraperitoneal, 0.3 mg/kg): > 1.2
- concentration at 2 h ([5]; mouse, brain, po, 3 mg/kg): 121 nM
- pIC50 (CYP 2D6): < 5.00
- gephyrin puncta [6]: increased gephyrin puncta
- time spent at target hole in probe trial (Gabrg2^+/Q390X mice): spent more time in the target hole area
- expression of mutant α1β2γ2(R82Q) receptors ([7]; applied 4 hrs before harvest): increased
- enhancing GABAA receptor subunit expression, comparison ([7]; different concentrations, 4 hrs): more effective in enhancing GABAA receptor subunit expression than Stiripentol
- expression of Hsp70 (heat shock protein Hsp70): Increased
- pIC50 (CYP 1A2): < 5.00

Reference: US20200000752A1, “Method for Treating Epilepsy” (Vanderbilt University, priority 2016, published 2020)
